From ChEMBL document CHEMBL4765282, “Design, synthesis and biological evaluation of 1H-pyrazolo [3,4-d]pyrimidine derivatives as PAK1 inhibitors that trigger apoptosis, ER stress and anti-migration effect in MDA-MB-231 cells” (Eur J Med Chem, 2020) come the findings set out here.

The source made the active and inactive calls. The rule behind the calls is not given here.

One may read the IC50 as the midpoint of a concentration-inhibition curve. Low readings indicate inhibition by little substance, high ones a need for much substance.

The target of the first assay is Serine/threonine-protein kinase PAK 1 (Homo sapiens, UniProt Q13153). The assay is described as follows: Inhibition of PAK1 (unknown origin) […] measured after 40 mins by ADP-glo kinase assay. For orientation: ADP-Glo first removes unused ATP, then detects ADP through luciferase.
Sequence of Serine/threonine-protein kinase PAK 1 (Q13153 whole entry): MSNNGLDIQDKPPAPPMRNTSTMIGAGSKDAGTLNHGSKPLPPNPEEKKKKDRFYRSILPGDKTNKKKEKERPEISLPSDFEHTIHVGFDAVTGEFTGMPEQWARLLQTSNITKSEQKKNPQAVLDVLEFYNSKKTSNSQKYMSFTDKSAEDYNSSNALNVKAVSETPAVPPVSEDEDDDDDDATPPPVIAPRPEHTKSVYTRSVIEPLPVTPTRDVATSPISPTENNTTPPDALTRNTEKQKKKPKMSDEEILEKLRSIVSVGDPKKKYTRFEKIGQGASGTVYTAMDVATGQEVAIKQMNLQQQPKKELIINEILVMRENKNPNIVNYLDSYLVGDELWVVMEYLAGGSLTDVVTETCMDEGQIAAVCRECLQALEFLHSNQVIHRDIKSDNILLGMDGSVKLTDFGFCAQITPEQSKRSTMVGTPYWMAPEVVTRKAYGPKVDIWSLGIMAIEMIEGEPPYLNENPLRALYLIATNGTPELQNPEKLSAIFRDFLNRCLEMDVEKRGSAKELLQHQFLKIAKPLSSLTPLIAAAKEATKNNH
The molecule `O=C(Nc1ccc(C(F)(F)F)cc1)N1CCC(Nc2ncnc3[nH]ncc23)CC1` came in with an IC50 of 15.8 µM. `O=C(Nc1cc(C(F)(F)F)cc(C(F)(F)F)c1)N1CCC(Nc2ncnc3[nH]ncc23)CC1` returned an IC50 of 9.32 µM. The same measure, in the same setting: then `Cc1cc(C)c(C(=O)NC2CCN(c3ncnc4[nH]ncc34)CC2)c(C)c1`, with 6.77 µM. The same measure, in the same setting: then `Cc1cc(C)c(C(=O)N2CCC(Nc3ncnc4[nH]ncc34)CC2)c(C)c1`, with 31.1 µM; and `COc1ccc(NC(=O)NC2CCN(c3ncnc4[nH]ncc34)CC2)cc1`, with 6.37 µM; and `FC(F)(F)c1cc(NC(=S)N2CCC(Nc3ncnc4[nH]ncc34)CC2)cc(C(F)(F)F)c1`, with 8.71 µM. In the case of `O=C(Nc1cccc2ccccc12)N1CCC(Nc2ncnc3[nH]ncc23)CC1`, the IC50 was greater than 50 µM.

`Cc1ccccc1C(=O)N1CCC(Nc2ncnc3[nH]ncc23)CC1`: the IC50 is 33.2 µM. The same measure, in the same setting: under `Cc1cccc(C)c1NC(=O)N1CCC(Nc2ncnc3[nH]ncc23)CC1` stands 6.27 µM; under `O=C(NC1CCN(c2ncnc3[nH]ncc23)CC1)c1ccc(F)cc1`, 4.54 µM.

With `S=C(Nc1cccc(Cl)c1)N1CCC(Nc2ncnc3[nH]ncc23)CC1`, half-maximal inhibition (IC50) required 7.89 µM. Same read-out and setting: then `O=C(c1cccc(Cl)c1Cl)N1CCC(Nc2ncnc3[nH]ncc23)CC1`, with 6.77 µM; and `S=C(Nc1ccccc1Cl)N1CCC(Nc2ncnc3[nH]ncc23)CC1`, with 6.67 µM; and `Cc1ccc(C(=O)NC2CCN(c3ncnc4[nH]ncc34)CC2)cc1`, with 5.61 µM. On the same count and under the same terms, then `Cc1cccc(C)c1NC(=O)NC1CCN(c2ncnc3[nH]ncc23)CC1`, with 2.16 µM. Same read-out and setting: under `O=C(NC1CCN(c2ncnc3[nH]ncc23)CC1)c1cccc(C(F)(F)F)c1` stands 2.51 µM; under `O=C(Nc1cccc(Cl)c1)NC1CCN(c2ncnc3[nH]ncc23)CC1`, 1.24 µM. As to `Cc1ccc(NC(=O)NC2CCN(c3ncnc4[nH]ncc34)CC2)cc1`, the IC50 was found to be 4.71 µM.

The molecule `COc1ccc(NC(=S)N2CCC(Nc3ncnc4[nH]ncc34)CC2)cc1` showed an IC50 of 15.1 µM. The same measure, in the same setting: then `O=C(Nc1ccc(Cl)cc1Cl)N1CCC(Nc2ncnc3[nH]ncc23)CC1`, with 5.46 µM. Take `O=C(c1ccc(Br)cc1)N1CCC(Nc2ncnc3[nH]ncc23)CC1`: it took 29.2 µM to reach half-maximal inhibition (IC50). Same read-out and setting: then `Cc1ccccc1C(=O)NC1CCN(c2ncnc3[nH]ncc23)CC1`, with 6.26 µM; and `O=C(c1ccc(F)cc1)N1CCC(Nc2ncnc3[nH]ncc23)CC1`, with 7.82 µM; and `Cc1ccc(NC(=S)N2CCC(Nc3ncnc4[nH]ncc34)CC2)cc1`, with 19.6 µM.

`Cc1cccc(C)c1NC(=S)N1CCC(Nc2ncnc3[nH]ncc23)CC1` displayed an IC50 of 7.36 µM.

The molecule `O=C(NC1CCN(c2ncnc3[nH]ncc23)CC1)c1ccc(C(F)(F)F)cc1` displayed an IC50 of 5.74 µM. On the same count and under the same terms, then `COc1ccc(C(=O)NC2CCN(c3ncnc4[nH]ncc34)CC2)cc1`, with 8.82 µM. In turn, `O=C(Nc1ccccc1Cl)NC1CCN(c2ncnc3[nH]ncc23)CC1` came in with an IC50 of 0.56 µM. The same measure, in the same setting: under `S=C(Nc1cccc2ccccc12)N1CCC(Nc2ncnc3[nH]ncc23)CC1` stands greater than 50 µM; under `O=C(Nc1ccc(F)cc1F)NC1CCN(c2ncnc3[nH]ncc23)CC1`, 1.14 µM.

As for `Cc1ccc(C(=O)N2CCC(Nc3ncnc4[nH]ncc34)CC2)cc1`, it took 39.5 µM to reach half-maximal inhibition (IC50). In the case of `O=C(Nc1ccccc1Cl)N1CCC(Nc2ncnc3[nH]ncc23)CC1`, the IC50 came out at 5.24 µM.

As for `O=C(c1ccccc1Cl)N1CCC(Nc2ncnc3[nH]ncc23)CC1`, half-maximal inhibition (IC50) required 6.84 µM. Still for that read-out and setting: then `O=C(c1ccc(Cl)cc1)N1CCC(Nc2ncnc3[nH]ncc23)CC1`, with 9.44 µM; and `O=C(Nc1ccc(Cl)c(Cl)c1)NC1CCN(c2ncnc3[nH]ncc23)CC1`, with 2.29 µM.

In turn, `O=C(NC1CCN(c2ncnc3[nH]ncc23)CC1)c1ccccc1Cl` yielded an IC50 of 5.24 µM. On the same count and under the same terms, then `O=C(NC1CCN(c2ncnc3[nH]ncc23)CC1)c1ccc(Br)cc1`, with 16.4 µM; and `O=C(Nc1ccc(Br)cc1)NC1CCN(c2ncnc3[nH]ncc23)CC1`, with 4.03 µM.

On to `O=C(Nc1cccc(Cl)c1)N1CCC(Nc2ncnc3[nH]ncc23)CC1`, for which the IC50 turned out to be 7.18 µM. On the same count and under the same terms, then `O=C(Nc1ccc(Cl)c(Cl)c1)N1CCC(Nc2ncnc3[nH]ncc23)CC1`, with 10.8 µM. `O=C(Nc1ccc(Br)cc1)N1CCC(Nc2ncnc3[nH]ncc23)CC1` had a 50% inhibitory concentration (IC50) of 17.9 µM. The molecule `O=C(Nc1cccc2ccccc12)NC1CCN(c2ncnc3[nH]ncc23)CC1` had an IC50 of 11.1 µM. Same read-out and setting: under `Cc1ccc(NC(=O)N2CCC(Nc3ncnc4[nH]ncc34)CC2)cc1` stands 17.4 µM; under `COc1ccc(NC(=O)N2CCC(Nc3ncnc4[nH]ncc34)CC2)cc1`, 13.8 µM. Same read-out and setting: then `O=C(Nc1ccc(C(F)(F)F)cc1)NC1CCN(c2ncnc3[nH]ncc23)CC1`, with 7.15 µM; and `O=C(c1cccc(C(F)(F)F)c1)N1CCC(Nc2ncnc3[nH]ncc23)CC1`, with greater than 50 µM. The same measure, in the same setting: under `O=C(NC1CCN(c2ncnc3[nH]ncc23)CC1)c1cccc(Cl)c1Cl` stands 4.17 µM. In the case of `O=C(Nc1ccc(F)cc1F)N1CCC(Nc2ncnc3[nH]ncc23)CC1`, half-maximal inhibition (IC50) was put at 5.17 µM. Still for that read-out and setting: under `O=C(c1ccc(C(F)(F)F)cc1)N1CCC(Nc2ncnc3[nH]ncc23)CC1` stands greater than 50 µM.

The test system of the next assay is MDA-MB-231. Briefly: Down regulation of PAK1 expression in human MDA-MB-231 cells at 5 uM measured after 24 hrs by immunofluorescence analysis. Format: functional, cell-based.
With `CCn1c(=O)c(-c2ccc(-c3cncs3)cc2Cl)cc2cnc(Nc3ccc(N4CCN(C)CC4)cc3)nc21`, the outcome was Active.
